Assay results taken from patent publication US10421725B2, “Alkoxyamines for the treatment of cancers” (Centre National De La Recherche Scientifique, priority 2013, dated 2019).

Columns and labels:
U87 cells [1] = assay: Mitochondrial alterations measurements (TMRE, NAO); format: cell-based, Human
Procedure: (§1) Cell culture: Human glioblastoma-astrocytoma cell line U87 MG from the American Type Culture Collection (reference ATCC-HTB-14) were cultured in Dulbecco's modified eagles medium (DMEM, Gibco Corp) supplemented with 10% fetal calf serum (FCS, Gibco Corp), in a humidified atmosphere with 5% CO2 at 37° C.
Mitochondrial alterations measurements. The red fluorescent dye tetramethylrhodamine ethyl ester (TMRE, Molecular Probes, Invitrogen, Life Technologies) was used to follow variations in mitochondrial membrane potential. This cationic probe accumulates in polarized mitochondria through the electrochemical gradient. Nonyl Acridine Orange (NAO, Molecular Probes, Invitrogen, Life Technologies) was then used as a complementary assay to assess the changes in mitochondrial morphology. Cells were plated on 24 multi-well plates (Becton-Dickinson, 2 cm^2/well) during 24 h and treated with a range of ALK-1 concentrations (0.1; 0.25; 0.375; 0.5; 0.75; 1.0 and 1.5 mM). After 3, 24 or 72 h, cells were resuspended in TMRE (250 nM) or NAO (500 nM) and incubated 30 minutes at 37° C., 5% CO2. Incubation with 0.5 mM of Carbonyl cyanide 3-chlorophenylhydrazone (CCCP, Sigma-Aldrich) was performed as positive control of the mitochondrial depolarization staining. Then, cells were washed and analyzed by flow cytometry. All the experiments were performed three times.

U87 cells [2] = assay: Viability test (LIVE/DEAD kit, flow cytometry); format: cell-based, Human
Procedure: as §1
Viability Test: The viability study of U87 cells treated or not with the alkoxyamine was measured by the LIVE/DEAD® Viability/Cytotoxicity Kit (Molecular Probes, Invitrogen, Life Technologies). Briefly, the cells were allowed to grow during 24 h on 24 multiwell plates (Becton-Dickinson, 2 cm^2/well). They were then treated with the alkoxyamine at concentrations ranging from 0.1 to 3 mM and tested for viability at distinct observation times (1, 3, 6, 24 or 72 h). To do this the adherent cells were dissociated from the plate by trypsinization and pelleted by centrifugation. Then, the cells were resuspended at 10^6 cells/mL on calcein-am and ethidium homodimer-1 solution during 20 minutes at room temperature and analyzed on a Guava easyCyte flow cytometer/counter (Millipore). U87 cells viability was also measured after treatment with previously homolysed alkoxyamine. For these experiments, the alkoxyamine was incubated in the culture medium during 72 h at 6 mM without the cells. U87 cells were then treated with different concentrations of this homolysed alkoxyamine for 1 h and a viability test was performed as previously described. The viability test in the presence of the free radical scavenger was carried out with an alkoxyamine concentration of 3 mM and an incubation time of 1 h. U87 cells viability was measured versus increasing concentrations the radical scavenger, trihydroxyethylrutin (Santa Cruz Biotechnology, inc.) namely, 20, 50 or 100 mM.

U87 cells [3] = assay: Oxidative stress (carboxy-H2DCFDA probe, flow cytometry); format: cell-based, Human; settings: 3 mM, 1 h
Procedure: as §1
Oxidative stress: The cells were grown in a 24 multiwell plate as previously described. Then, cells were dissociated using 0.05% trypsin (Invitrogen, Carlsbad, Calif., USA) and suspended at a density of 1×10^6 cells/mL in carboxy-H2DCFDA (Molecular Probes, Invitrogen, Life Technologies) at 50 μM. After 30 minutes incubation at 37° C., cells were washed with phosphate buffered saline (PBS). Cells were centrifuged and resuspended with cell culture media containing or not 3 mM alkoxyamine with or without trihydroxyethylrutin at 20 or 50 mM. After incubation time the cells were washed and analyzed on a Guava easyCyte flow cytometer/counter.

U87 cells [4] = assay: Cell death analysis by annexin V/propidium iodide staining; format: cell-based, Human
Procedure: as §1
Cell death analysis by annexin V/propidium iodide staining. Cell death was detected by annexin V-FITC (Molecular Probes, Invitrogen, Life Technologies) binding to exposed […] (PS) residues at the surface of cells. Cells were treated with ALK-1 at concentrations ranging from 0.1 to 1.5 mM at 37° C. and tested at distinct observation times (3, 24 or 72 h). After treatment, cells were re-suspended in staining buffer containing propidium iodide (PI, 2 μg/mL) and annexin V-FITC. Double-labeling was performed at room temperature for 15 min in darkness. Then, the percentage of viable (IP−/AV−), early apoptotic (IP−/AV+) and late apoptosis/necrotic cells (IP+/AV+) was quantified by flow cytometry. These experiments were performed twice.

U87 cells [5] = assay: Apoptosis detection through caspase-3/-7 assay; format: cell-based, Human
Procedure: as §1
Apoptosis detection through caspase-3/-7 assay. Quantitative assessment of apoptotic cells was also conducted by the detection of caspase activity using the Vybrant® FAM Caspase-3 and -7 Assay Kit (Molecular Probes, Invitrogen, Life Technologies). Briefly, cells were treated with the previously described ALK-1 concentrations during 3, 24 or 72 h. After the alkoxyamine treatment, the cells were dissociated from the support, washed and incubated 1 h at 37° C. in FLICA working solution. Then, the cells were washed and green fluorescence was measured by flow cytometry. These experiments were performed twice.

[6] = Monitoring of ALK-1 homolysis by Overhauser-enhanced MRI (OMRI); format: physicochemical
Text: EPR Cavity and MRI devices. The OMRI experiment were done in a C-shaped 0.2 T MRI system (Magnetom Open Viva, Siemens, Erlangen, Germany) and a resonant TE011 transverse electric mode EPR cavity setup (Bruker, Wissembourg, France) as described previously. The EPR cavity, placed at the center of the magnet, was used to saturate the electron spin transition of the nitroxide SG1 produced upon ALK-1 homolysis. A homemade saddle-shaped MRI coil (28 mm in diameter and 29 mm in length) in the EPR cavity was used for imaging.
Electron spin saturation was carried out at 5.4573 GHz, corresponding to the first line at high field from the center of the EPR spectrum. The proton frequency was 8.24 MHz. Sample temperature was kept at 37° C.
OMRI experiments were performed in two NMR tubes (4 mm inner diameter): one containing 0.8 mM of SG1 nitroxide in phosphate buffer saline (not shown) and the other with 0.8 mM of ALK-1 in DMEM, 10% FCS. ALK-1 homolysis was followed for 48 hours.
Pulse sequences. […] All MR adjustments were done manually, using the same fixed receiver amplification gain for both measurements, without (Soff) and with (Son) HF irradiation, so that signals can be directly compared and Overhauser enhancements (Son/Soff) calculated.
Post-processing. […] Signal intensity was measured in a rectangular region of interest of 2 mm^2 positioned in the NMR tube area. […]

[7] = cited from earlier work

SMILES	mitochondrial potential (TMRE) (U87 cells [1]; 0.5 mM CCCP positive control, all incubation times)	accessibility of the cardiolipins to NAO (U87 cells [1]; 0.5 mM CCCP, independently of incubation time)	cells saved by the free radical scavenger (U87 cells [2]; 3 mM alkoxyamine, 1 h, with free radical scavenger (trihydroxyethylrutin)) [%]	cells killed (U87 cells [2]; 3 mM, one hour)	cytotoxic effect (U87 cells [2]; 0.1 to 3 mM)	toxicity for U87 cells of previously homolysed alkoxyamine (U87 cells [2]; same concentration, previously homolysed (72 h in culture medium), 1 h treatment)	oxidative stress (U87 cells [3])	NAO staining (U87 cells [1]; 24 h, ALK-1 concentrations greater than 0.5 mM)	concentration from which the mitochondrial potential drops (TMRE) (U87 cells [1]; all times of observation (3, 24, 72 h)) [mM]	necrotic or apoptotic cells (PI+/AV+) (U87 cells [4]; 3 h, 1.5 mM)	necrotic or apoptotic cells (PI+/AV+) (U87 cells [4]; 24 h, 1 mM) [%]	PI+/AV+ cells (U87 cells [4]; 72 h, 0.5 mM)	cells carrying activated caspases (U87 cells [5]; 3 h, 1.5 mM) [%]	caspase positive cells (U87 cells [5]; 24 h, 1 mM) [%]	caspase+ cells (U87 cells [5]; 72 h, 0.25 mM)	caspase positive cells (U87 cells [5]; 72 h, 0.5 mM) [%]	Ea (homolysis activation energy) ([6]; afforded by the OMRI t1/2) [kcal/mol]	half-life at 0.8 mM ([6]; cell culture medium (DMEM, 10% FCS), 0.8 mM, culture cell medium, 37° C., OMRI, read-out: experimental t1/2 of homolysis) [h]	Ea (homolysis activation energy), value reported [7] [kcal/mol]
N#CC(C#N)=NNc1cccc(Cl)c1 [CCCP, Carbonyl cyanide 3-chlorophenylhydrazone, reference compound]	expected drop of the mitochondrial potential	either neutral or positive																	
CCOP(=O)(OCC)C(N(OC(C)c1cc[n+](C)cc1)C(C)(C)C)C(C)(C)C (stereo not shown) [ALK-1, N-methyl 4-(1-((tert-butyl(1-(diethoxyphosphoryl)-2,2-dimethylpropyl)amino)oxy)ethyl)pyridin-1-ium 4-methylbenzenesulfonate]			80	approximately 75%	dose-dependent cytotoxic effect	do not carry any toxicity	strong oxidative stress	increased	≥ 0.5	most cells were necrotic or apoptotic cells	94	most cells were PI+/AV+	92	88	more than 40%	80	26.1	~2.08	25.3
